Columns and labels:
[1] = molecular target: T1, Histamine H3 receptor (Homo sapiens, UniProt Q9Y5N1); assay: Displacement of [3H]-N-alpha-methylhistamine from human recombinant full length H3R expressed in HEK293 cell membranes incubated for 90 mins by liquid scintillation counting method
[2] = molecular target: T1, Histamine H3 receptor; assay: Antagonist activity at human H3R expressed in HEK293 cells assessed as reduction in R)(-)-alpha methylhistamine-induced inhibition of forskolin-induced cAMP accumulation by TR-FRET based LANCE ultra cAMP immunoassay; format: functional, cell-based
[3] = organism: Rattus norvegicus; assay: Reversal of RAMH-induced dipsogenia in Wistar rat (Krf:(WI) WU) assessed as inhibition of RAMH-induced drinking response pretreated for 30 mins followed by RAMH stimulation for 20 mins and measured for 30 mins; format: functional
[4] = molecular target: T2, Histamine H4 receptor (Homo sapiens, UniProt Q9H3N8); assay: Displacement of [3H]histamine from human recombinant H4R expressed in CHO cells incubated for 60 mins by microbeta scintillation counter method; format: cell-based
T2 sequence (Q9H3N8 whole entry): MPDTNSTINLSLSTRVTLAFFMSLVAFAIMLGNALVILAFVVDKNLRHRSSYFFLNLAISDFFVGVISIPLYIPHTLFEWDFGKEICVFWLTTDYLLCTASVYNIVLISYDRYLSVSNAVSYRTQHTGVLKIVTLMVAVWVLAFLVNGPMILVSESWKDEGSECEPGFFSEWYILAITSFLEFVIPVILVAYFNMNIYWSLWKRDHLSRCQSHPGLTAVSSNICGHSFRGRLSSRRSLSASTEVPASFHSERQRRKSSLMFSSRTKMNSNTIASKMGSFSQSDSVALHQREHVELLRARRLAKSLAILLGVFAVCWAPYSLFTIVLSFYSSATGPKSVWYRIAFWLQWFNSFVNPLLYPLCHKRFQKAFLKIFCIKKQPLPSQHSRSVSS

[5] = molecular target: Histamine H1 receptor (Cavia porcellus) (UniProt P31389); assay: (§1) Antagonist activity at histamine H1 receptor in guinea-pig ileum assessed as inhibition of histamine-induced contractions incubated for 15 mins; format: tissue-based
Sequence of Histamine H1 receptor (Cavia porcellus) (P31389 whole entry): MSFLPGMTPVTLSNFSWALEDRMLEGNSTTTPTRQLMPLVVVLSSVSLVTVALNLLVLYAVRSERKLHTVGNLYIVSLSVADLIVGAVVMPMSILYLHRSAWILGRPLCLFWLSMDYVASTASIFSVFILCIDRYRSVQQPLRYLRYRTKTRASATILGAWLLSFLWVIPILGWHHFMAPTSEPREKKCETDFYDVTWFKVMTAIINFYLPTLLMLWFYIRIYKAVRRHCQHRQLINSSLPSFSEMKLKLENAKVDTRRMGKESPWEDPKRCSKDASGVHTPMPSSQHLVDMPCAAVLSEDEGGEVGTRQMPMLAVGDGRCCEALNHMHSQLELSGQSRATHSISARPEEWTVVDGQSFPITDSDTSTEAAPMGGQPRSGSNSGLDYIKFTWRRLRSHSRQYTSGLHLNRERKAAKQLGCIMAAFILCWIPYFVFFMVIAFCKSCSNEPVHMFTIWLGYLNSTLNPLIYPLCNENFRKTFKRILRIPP

[6] = molecular target: Histamine H1 receptor (Cavia porcellus, UniProt P31389); assay: as §1; format: tissue-based; conditions: read-out: pA2 (converted)
Sequence of Histamine H1 receptor (Cavia porcellus, UniProt P31389) (P31389 whole entry): as above

[7] = molecular target: Muscarinic acetylcholine receptor M3 (Cavia porcellus) (UniProt Q8VH26); assay: Antagonist activity at muscarinic M3 receptor in guinea-pig ileum assessed as inhibition of carbachol-induced contractions incubated for 15 mins; format: tissue-based
Sequence of Muscarinic acetylcholine receptor M3 (Cavia porcellus) (Q8VH26 1-587): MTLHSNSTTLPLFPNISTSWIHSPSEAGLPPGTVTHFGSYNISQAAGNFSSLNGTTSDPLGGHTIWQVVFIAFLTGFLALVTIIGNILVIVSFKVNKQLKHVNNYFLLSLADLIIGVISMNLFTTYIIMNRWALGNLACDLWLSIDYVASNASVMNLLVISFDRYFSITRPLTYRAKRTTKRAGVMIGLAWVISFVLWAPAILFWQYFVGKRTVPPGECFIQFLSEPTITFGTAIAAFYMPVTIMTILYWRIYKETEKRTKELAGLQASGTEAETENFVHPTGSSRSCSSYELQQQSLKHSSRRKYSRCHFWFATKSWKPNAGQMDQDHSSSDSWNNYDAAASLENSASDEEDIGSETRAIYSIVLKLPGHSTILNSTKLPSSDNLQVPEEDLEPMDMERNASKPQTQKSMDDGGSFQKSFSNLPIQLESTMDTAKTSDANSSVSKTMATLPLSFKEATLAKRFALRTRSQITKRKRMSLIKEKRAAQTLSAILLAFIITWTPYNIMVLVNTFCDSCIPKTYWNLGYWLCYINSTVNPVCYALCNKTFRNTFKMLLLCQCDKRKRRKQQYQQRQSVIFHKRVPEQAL

[8] = organism: Homo sapiens; assay: Selectivity ratio of Ki for human H4R to Ki for human H3R
[9] = system: HepG2; assay: Cytotoxicity against human HepG2 cells assessed as cell viability incubated for 72 hrs by cellTiter 96 AQueous non-radioactive cell proliferation assay; format: cell-based; conditions: HepG2, 72 h
[10] = Ratio of test compound IC50 to doxorubicin IC50 for cytotoxicity against human HepG2 cells assessed as cell viability incubated for 72 hrs by cellTiter 96 AQueous non-radioactive cell proliferation assay; format: cell-based; conditions: read-out: Ratio IC50
[11] = Mutagenicity in Salmonella typhimurium TA98 assessed as fold increase in number of positive wells over the solvent control baseline upto 10 uM incuabted for 90 mins and measured after 48 hrs by Ames test; format: toxicity; conditions: salmonella enterica subsp. enterica serovar typhimurium
[12] = Mutagenicity in Salmonella typhimurium TA100 assessed as fold increase in number of positive wells over the solvent control baseline upto 10 uM incuabted for 90 mins and measured after 48 hrs by Ames test; format: toxicity; conditions: salmonella enterica subsp. enterica serovar typhimurium
[13] = Metabolic stability in human recombinant liver microsomes assessed as retention time at 50 uM preincubated for 5 mins followed by NADPH addition and measured after 120 mins by UPLC-MS analysis; format: ADME, Microsome; conditions: 2 h
[14] = Metabolic stability in human recombinant liver microsomes assessed as metabolite M formation at 50 uM preincubated for 5 mins followed by NADPH addition and measured after 120 mins by UPLC-MS analysis; format: ADME, Microsome; conditions: 2 h
[15] = Metabolic stability in human recombinant liver microsomes assessed as metabolite M1 formation at 50 uM preincubated for 5 mins followed by NADPH addition and measured after 120 mins by UPLC-MS analysis; format: ADME, Microsome; conditions: 2 h
[16] = Metabolic stability in human recombinant liver microsomes assessed as metabolite M2 formation at 50 uM preincubated for 5 mins followed by NADPH addition and measured after 120 mins by UPLC-MS analysis; format: ADME, Microsome; conditions: 2 h
[17] = Metabolic stability in human recombinant liver microsomes assessed as metabolite M3 formation at 50 uM preincubated for 5 mins followed by NADPH addition and measured after 120 mins by UPLC-MS analysis; format: ADME, Microsome; conditions: 2 h
[18] = molecular target: T3, Cytochrome P450 3A4 (Homo sapiens, UniProt P08684); assay: Inhibition of human recombinant CYP3A4 using luciferin as substrate at 0.025 to 25 uM preincubated for 10 mins followed by substrate addition and measured after 50 mins in presence of NADPH by CYP450-Glo assay; format: ADME; conditions: recombinant enzyme
T3 sequence (P08684 whole entry): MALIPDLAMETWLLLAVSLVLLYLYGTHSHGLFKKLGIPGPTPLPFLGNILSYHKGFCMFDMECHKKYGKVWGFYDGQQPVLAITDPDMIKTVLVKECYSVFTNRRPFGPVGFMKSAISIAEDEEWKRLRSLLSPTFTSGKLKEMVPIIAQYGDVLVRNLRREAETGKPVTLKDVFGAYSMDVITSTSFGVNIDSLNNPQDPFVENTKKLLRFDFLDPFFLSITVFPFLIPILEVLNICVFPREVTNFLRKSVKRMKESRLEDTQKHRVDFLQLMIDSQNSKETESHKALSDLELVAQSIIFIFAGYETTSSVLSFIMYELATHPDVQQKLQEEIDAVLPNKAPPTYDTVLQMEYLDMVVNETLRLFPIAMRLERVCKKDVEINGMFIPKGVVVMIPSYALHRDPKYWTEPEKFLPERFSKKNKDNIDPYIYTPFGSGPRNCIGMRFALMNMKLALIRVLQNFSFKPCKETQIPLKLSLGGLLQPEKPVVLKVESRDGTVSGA

[19] = molecular target: T3, Cytochrome P450 3A4; assay: Activation of human recombinant CYP3A4 using luciferin as substrate at 12.5 to 25 uM preincubated for 10 mins followed by substrate addition and measured after 50 mins in presence of NADPH by CYP450-Glo assay; format: ADME; conditions: recombinant enzyme
[20] = molecular target: Cytochrome P450 2D6 (Homo sapiens, UniProt P10635); assay: Inhibition of human recombinant CYP2D6 at >2.5 uM using luciferin as substrate preincubated for 10 mins followed by substrate addition and measured after 50 mins in presence of NADPH by CYP450-Glo assay; format: ADME; conditions: recombinant enzyme
Sequence of Cytochrome P450 2D6 (P10635 whole entry): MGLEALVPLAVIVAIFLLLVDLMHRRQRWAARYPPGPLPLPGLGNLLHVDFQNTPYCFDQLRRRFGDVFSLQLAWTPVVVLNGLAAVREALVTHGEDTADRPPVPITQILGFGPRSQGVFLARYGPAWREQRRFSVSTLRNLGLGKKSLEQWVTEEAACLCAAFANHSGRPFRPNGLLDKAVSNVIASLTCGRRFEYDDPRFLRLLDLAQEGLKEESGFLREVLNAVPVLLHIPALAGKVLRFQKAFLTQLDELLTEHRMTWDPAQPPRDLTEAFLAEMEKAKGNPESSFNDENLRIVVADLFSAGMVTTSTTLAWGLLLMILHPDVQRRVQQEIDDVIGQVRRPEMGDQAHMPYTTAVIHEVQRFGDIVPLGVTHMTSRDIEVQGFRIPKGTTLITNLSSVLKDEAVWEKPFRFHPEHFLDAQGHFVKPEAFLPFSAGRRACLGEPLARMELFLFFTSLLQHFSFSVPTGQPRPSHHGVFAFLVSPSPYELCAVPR

[21] = molecular target: T4, Voltage-gated inwardly rectifying potassium channel KCNH2 (Homo sapiens, UniProt Q12809)
T4 sequence (Q12809 whole entry): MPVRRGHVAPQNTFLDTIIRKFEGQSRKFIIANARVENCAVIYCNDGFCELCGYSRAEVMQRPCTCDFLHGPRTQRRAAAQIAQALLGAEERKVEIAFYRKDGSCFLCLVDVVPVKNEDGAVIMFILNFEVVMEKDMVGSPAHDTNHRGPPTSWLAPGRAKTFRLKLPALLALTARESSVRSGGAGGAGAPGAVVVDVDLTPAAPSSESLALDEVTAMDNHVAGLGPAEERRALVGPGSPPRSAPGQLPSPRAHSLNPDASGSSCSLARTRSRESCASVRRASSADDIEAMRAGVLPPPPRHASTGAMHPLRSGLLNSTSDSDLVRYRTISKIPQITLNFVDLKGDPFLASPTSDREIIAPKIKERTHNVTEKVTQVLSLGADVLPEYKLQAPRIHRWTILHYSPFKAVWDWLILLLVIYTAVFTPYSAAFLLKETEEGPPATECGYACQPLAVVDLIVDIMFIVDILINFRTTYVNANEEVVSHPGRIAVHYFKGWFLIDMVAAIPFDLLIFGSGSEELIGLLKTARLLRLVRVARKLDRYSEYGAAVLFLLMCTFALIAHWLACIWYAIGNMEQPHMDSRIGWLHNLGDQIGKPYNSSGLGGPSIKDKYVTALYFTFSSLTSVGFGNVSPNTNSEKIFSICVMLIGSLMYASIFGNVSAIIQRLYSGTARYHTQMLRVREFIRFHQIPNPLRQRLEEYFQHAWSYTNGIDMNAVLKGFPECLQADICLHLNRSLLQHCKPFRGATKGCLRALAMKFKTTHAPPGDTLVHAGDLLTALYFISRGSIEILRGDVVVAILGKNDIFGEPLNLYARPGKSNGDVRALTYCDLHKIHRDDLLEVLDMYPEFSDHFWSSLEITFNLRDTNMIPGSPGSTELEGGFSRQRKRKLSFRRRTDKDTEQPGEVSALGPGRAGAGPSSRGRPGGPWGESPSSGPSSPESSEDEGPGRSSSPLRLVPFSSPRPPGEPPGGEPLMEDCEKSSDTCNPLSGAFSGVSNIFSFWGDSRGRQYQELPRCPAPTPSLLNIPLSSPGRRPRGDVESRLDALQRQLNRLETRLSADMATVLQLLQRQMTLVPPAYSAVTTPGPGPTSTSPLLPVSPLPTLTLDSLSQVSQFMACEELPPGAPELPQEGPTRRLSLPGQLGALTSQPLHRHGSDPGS

[22] = molecular target: T2, Histamine H4 receptor; assay: Binding affinity to human H4R
[23] = molecular target: T1, Histamine H3 receptor; assay: Binding affinity to human H3R expressed in rat C6 cells; format: cell-based
[24] = molecular target: Histamine H1 receptor (Homo sapiens, UniProt P35367); assay: Displacement of [3H]pyrilamine from human H1 receptor expressed in CHOK1 cells incubated for 60 mins by microbeta scintillation counter method; format: cell-based
Sequence of Histamine H1 receptor (Homo sapiens, UniProt P35367) (P35367 whole entry): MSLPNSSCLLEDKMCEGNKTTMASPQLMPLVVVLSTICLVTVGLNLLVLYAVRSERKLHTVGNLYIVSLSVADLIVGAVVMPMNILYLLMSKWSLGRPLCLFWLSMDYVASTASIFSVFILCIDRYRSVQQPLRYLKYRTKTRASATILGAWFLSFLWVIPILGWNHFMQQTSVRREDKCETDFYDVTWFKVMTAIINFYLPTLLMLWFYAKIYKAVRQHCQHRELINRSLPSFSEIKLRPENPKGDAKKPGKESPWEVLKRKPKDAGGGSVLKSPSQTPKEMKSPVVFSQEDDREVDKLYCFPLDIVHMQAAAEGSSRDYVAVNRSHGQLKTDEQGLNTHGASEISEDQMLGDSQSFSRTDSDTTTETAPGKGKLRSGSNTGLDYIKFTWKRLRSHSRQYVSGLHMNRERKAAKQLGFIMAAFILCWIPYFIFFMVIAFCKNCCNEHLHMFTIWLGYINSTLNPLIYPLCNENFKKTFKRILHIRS

[25] = Metabolic stability in rat liver microsomes assessed as retention time at 50 uM preincubated for 5 mins followed by NADPH addition and measured after 30 mins UPLC-MS analysis; format: ADME, Microsome; conditions: 0.5 h
[26] = Metabolic stability in rat liver microsomes assessed as metabolite M1 formation at 50 uM preincubated for 5 mins followed by NADPH addition and measured after 30 mins UPLC-MS analysis; format: ADME, Microsome; conditions: 0.5 h
[27] = Metabolic stability in rat liver microsomes assessed as metabolite M2 formation at 50 uM preincubated for 5 mins followed by NADPH addition and measured after 30 mins UPLC-MS analysis; format: ADME, Microsome; conditions: 0.5 h
[28] = Metabolic stability in rat liver microsomes assessed as metabolite M3 formation at 50 uM preincubated for 5 mins followed by NADPH addition and measured after 30 mins UPLC-MS analysis; format: ADME, Microsome; conditions: 0.5 h
[29] = Half life in rat liver microsomes measured up to 30 mins; format: ADME, Microsome
[30] = Intrinsic clearance in rat liver microsomes measured up to 30 mins; format: ADME, Microsome; conditions: read-out: CLH
[31] = molecular target: T2, Histamine H4 receptor; assay: Antagonist activity at human H4R expressed in HEK293 cells incubated for 20 mins by [35S]GTPgammaS binding assay; format: functional, cell-based
[32] = molecular target: T4, Voltage-gated inwardly rectifying potassium channel KCNH2; assay: Displacement of [3H]Dofetilide from human ERG human expressed in HEK293 cells incubated for 45 mins; format: cell-based
[33] = system: Rattus norvegicus; assay: Reversal of RAMH-induced dipsogenia in Wistar rat (Krf:(WI) WU) assessed as inhibition of RAMH-induced drinking response at 1.25 mg/kg, ip pretreated for 30 mins followed by RAMH stimulation for 20 mins and measured for 30 mins; format: functional
[34] = molecular target: T1, Histamine H3 receptor; assay: Binding affinity to human H3R

T1 sequence (Q9Y5N1 whole entry): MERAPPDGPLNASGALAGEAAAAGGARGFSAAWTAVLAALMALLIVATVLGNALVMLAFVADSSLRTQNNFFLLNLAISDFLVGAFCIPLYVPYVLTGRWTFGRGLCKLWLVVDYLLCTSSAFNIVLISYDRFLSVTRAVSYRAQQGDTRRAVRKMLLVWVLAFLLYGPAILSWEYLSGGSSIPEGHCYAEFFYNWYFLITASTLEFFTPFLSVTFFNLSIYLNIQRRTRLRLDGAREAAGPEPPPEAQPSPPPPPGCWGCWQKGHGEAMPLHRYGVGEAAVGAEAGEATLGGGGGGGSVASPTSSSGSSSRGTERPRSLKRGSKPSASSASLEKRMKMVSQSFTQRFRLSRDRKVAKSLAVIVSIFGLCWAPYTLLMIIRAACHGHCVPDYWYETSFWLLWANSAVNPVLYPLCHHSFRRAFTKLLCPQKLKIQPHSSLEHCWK

O=C(O)C(=O)O.c1ccc(-c2ccc(OCCCCCN3CCCCC3)cc2)cc1
Ki [1]: 25 nM | Activity [2]: Dose-dependent effect | IC50 [2]: 4.04 nM | ED50 [3]: 2.72 mg/kg | inhibition [3]: Dose-dependent effect | Ki [4]: 19900 nM | Activity [5]: Dose-dependent effect | Kb [6]: 295 nM | pKb [7]: 6.35 | Ratio Ki [8]: 600 | IC50 [9]: 17200 nM | selectivity ratio at 72 h [10]: > 30 | fold change (FC) [11]: < 2 | fold change (FC) [12]: < 2 | Retention_time [13]: 5.83 min | Drug metabolism [14]: Metabolite_Notdetected | Drug metabolism [15]: Metabolite_Notdetected | Drug metabolism [16]: Metabolite_Notdetected | Drug metabolism [17]: Metabolite_Notdetected | inhibition (INH) [18]: Not Active | Activity [19]: Active | inhibition (INH) [20]: Active | IC50 [21]: 1750 nM

C[C@@H]1CC[C@@H](C)N1CCCOc1ccc(-c2ccc(C(=O)N3CCOCC3)cc2)cc1
Ki [22]: > 10000 nM | Ki [23]: 0.42 nM

CN1[C@@H]2CC[C@H]1C[C@@H](OC(=O)C(CO)c1ccccc1)C2 (stereo partly drawn)
pKb [7]: 8.99

O=C(O)C(=O)O.c1ccc(-c2ccc(OCCCCCN3CCCCCC3)cc2)cc1
Ki [1]: 34 nM | Activity [2]: Dose-dependent effect | IC50 [2]: 9.08 nM | ED50 [3]: 1.75 mg/kg | inhibition [3]: Dose-dependent effect | Ki [4]: 21800 nM | Activity [5]: Dose-dependent effect | Kb [6]: 724 nM | pKb [7]: 6.16 | Ki [24]: 1270 nM | Retention_time [13]: 6.08 min | Retention_time [25]: 6 min | Drug metabolism [14]: Metabolite_Detected | Drug metabolism [15]: Metabolite_Detected | Drug metabolism [16]: Metabolite_Detected | Drug metabolism [17]: Metabolite_Detected | Drug metabolism [26]: Metabolite_Detected | Drug metabolism [27]: Metabolite_Detected | Drug metabolism [28]: Metabolite_Detected | half-life [29]: 23.6 min | CLint scaled [30]: 52.9 mL/min/kg | inhibition (INH) [18]: Not Active | Activity [19]: Active | inhibition (INH) [20]: Active

c1ccc(CN(CC2=NCCN2)c2ccccc2)cc1 [ANTAZOLINE]
Kb [6]: 72.4 nM

CC(C)(C)c1ccc(OCCCN2CCCCC2)cc1
Ki [1]: 131 nM

CC1CCN(CCCCCOc2cccc(-c3ccccc3)c2)CC1
Ki [1]: 157 nM

CN1C[C@H]2CCN(c3ccc(-c4ccc(-n5ncccc5=O)cc4)cc3)[C@H]2C1
Ki [31]: > 10000 nM | Ki [32]: 8830 nM

c1ccc(-c2cccc(OCCCCCN3CCCCCC3)c2)cc1
Ki [1]: 115 nM

c1ccc(-c2cccc(OCCCCCN3CCCCC3)c2)cc1
Ki [1]: 76 nM

COc1cccc2c1C(=O)c1c(O)c3c(c(O)c1C2=O)C[C@@](O)(C(=O)CO)C[C@@H]3O[C@H]1C[C@H](N)[C@H](O)[C@H](C)O1 [DOXORUBICIN]
IC50 [9]: 392 nM

c1ccc(-c2cccc(OCCCCCCN3CCCCCC3)c2)cc1
Ki [1]: 18 nM

CC1CCN(CCCCCCOc2cccc(-c3ccccc3)c2)CC1
Ki [1]: 159 nM

CC1CCN(CCCCCOc2ccc(-c3ccccc3)cc2)CC1
Ki [1]: 89 nM

c1ccc(-c2ccc(OCCCCCCN3CCCCC3)cc2)cc1
Ki [1]: 92 nM

CC1CCN(CCCCCCOc2ccc(-c3ccccc3)cc2)CC1
Ki [1]: 266 nM

Clc1ccc(CCCOCCCN2CCCCC2)cc1 [PITOLISANT]
inhibition in vivo at 1.25 mg/kg [33]: 87% | IC50 [21]: 1700 nM

C[C@@H]1CCCN1[C@H]1C[C@H](c2ccc(-c3ccc(C#N)cc3)cc2)C1
Ki [34]: 0.17 nM

c1ccc(-c2cccc(OCCCCCCN3CCCCC3)c2)cc1
Ki [1]: 122 nM

c1ccc(-c2ccc(OCCCCCCN3CCCCCC3)cc2)cc1
Ki [1]: 151 nM

Source: ChEMBL document CHEMBL4433195, “Biphenyloxy-alkyl-piperidine and azepane derivatives as histamine H3 receptor ligands” (Bioorg Med Chem, 2017)
